Experimental data: paper PMC12606464, “Investigating NFE2L1 activators for targeted protein aggregate clearance: a follow-up study” (RSC Medicinal Chemistry, 2025)

System: SKN-1A
Experiment: rpt-3p::GFP reporter in C. elegans strain GR2183
Assay type: in vivo, Caenorhabditis elegans
Description: Firstly, we investigated whether RUN-89 triggers SKN-1A activation in C. elegans by using the GR2183 strain. By using this strain, the activation of SKN-1A is indicated by GFP expression, which is driven by the promoter of the proteasome subunit gene (rpt-3p::GFP).[80,81]
Figure S9. RUN-89 activates the NFE2L1 orthologue gene SKN-1A in C. elegans.
In the GR2183 strain, activation of the SKN-1A is reported by the expression of GFP under the control of the proteasome subunit gene promoter (rpt-3p::GFP). Animals were treated with 25 µM RUN-89 or DMSO (vehicle control) for 24 hours with subsequent microscopic analysis.
Results of relative GFP fluorescence intensity per single animal are presented. Overall, 71 animals (n | DMSO = 20, RUN-89 = 21) from three independent experiments ( N) were analyzed.
The two dashed horizontal lines indicate the interquartile range, and the thick horizontal line represents the median. A significant increase in fluorescence intensity after RUN-89 treatment was verified by a Kolmogorov-Smirnov test. ***p<0.001. […]
Transgenic GR2183 worms carrying the reporter gene (rpt -3p::GFP) were exposed to RUN-89 for 24 hours and for AM140 (rmIs132 [unc-54p::Q35::YFP]) to aged 6 days under treatment to establish protein aggregation model. The worms were then anesthetized with […] sodium azide and placed on glass slides with 5% agar for fluorescence microscope observation. […]

Structure (SMILES): COc1ccc(/C=C2\CC(NC(=O)C3CCCC3)C/C(=C\c3ccc(OC)c(OC)c3)C2=O)cc1OC (centres unmarked) [RUN-89]
- Average relative fluorescence intensity per GR2183 animal (25 μM, 24 h, 20 °C, young adults, versus vehicle): significantly higher
- Median rpt-3p::GFP (SKN-1A reporter) (GR2183, DMSO median = 100.00, Figure S9): 114.62
